Data reported in ChEMBL document CHEMBL1201862, “PubChem BioAssay data set” (2004).
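Interpolation was linear, between the two tested concentrations surrounding the appropriate level; five concentrations were tested over 48 hours in 96-well plates. The concentration for 50% growth inhibition is given as GI50.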 Active and inactive are the calls of the source. Cut-off read from the data, not from the text of the source: active = GI50 up to about 1.1 µM and inactive = higher.

What was measured:
Assay in all cases: inhibition of tumour cell growth, NCI panel, 48 h
[1] = test system: M14
[2] = test system: MDA-N
[3] = test system: BT-549
[4] = test system: PC-3
[5] = test system: NCI-H460
[6] = test system: SF-295
[7] = test system: HL-60
[8] = test system: HOP-92
[9] = test system: ACHN
[10] = test system: CCRF-CEM
[11] = test system: A498
[12] = test system: EKVX
[13] = test system: A549
[14] = test system: SK-MEL-2
[15] = test system: MOLT-4
[16] = test system: Hs-578T
[17] = test system: SF-268
[18] = test system: OVCAR-4
[19] = test system: KM12
[20] = test system: DU-145

| SMILES | GI50 [1] | GI50 [2] | GI50 [3] | GI50 [4] | GI50 [5] | GI50 [6] | GI50 [7] | GI50 [8] | GI50 [9] | GI50 [10] | GI50 [11] | GI50 [12] | GI50 [13] | GI50 [14] | GI50 [15] | GI50 [16] | GI50 [17] | GI50 [18] | GI50 [19] | GI50 [20] |
| --- | --- | --- | --- | --- | --- | --- | --- | --- | --- | --- | --- | --- | --- | --- | --- | --- | --- | --- | --- | --- |
| N#C/C(=C\Nc1ccccn1)C(=O)C1CC1 | > 100 µM (inactive) | > 100 µM (inactive) | > 100 µM (inactive) | > 100 µM (inactive) | > 100 µM (inactive) | > 100 µM (inactive) | > 100 µM (inactive) | > 100 µM (inactive) | > 100 µM (inactive) | 76.9 µM (inactive) | > 100 µM (inactive) | > 100 µM (inactive) | > 100 µM (inactive) | > 100 µM (inactive) | > 100 µM (inactive) | > 100 µM (inactive) | > 100 µM (inactive) | > 100 µM (inactive) | > 100 µM (inactive) | > 100 µM (inactive) |
| CN(C(=O)C12C3(C(=O)O)C4C5(C(=O)O)C3C1(C(=O)O)C5C42C(=O)O)C(C)(C)C (stereo not given) | > 100 µM (inactive) | > 100 µM (inactive) | > 100 µM (inactive) | > 100 µM (inactive) | > 100 µM (inactive) | > 100 µM (inactive) | > 100 µM (inactive) | > 100 µM (inactive) | > 100 µM (inactive) | > 100 µM (inactive) | > 100 µM (inactive) | > 100 µM (inactive) | > 100 µM (inactive) | > 100 µM (inactive) | > 100 µM (inactive) | > 100 µM (inactive) | > 100 µM (inactive) | > 100 µM (inactive) | > 100 µM (inactive) | > 100 µM (inactive) |
| O=C1c2ccccc2C(=O)N1c1ccc(OCCN2CCCCC2)cc1 | > 100 µM (inactive) | > 100 µM (inactive) | > 100 µM (inactive) | > 100 µM (inactive) | > 100 µM (inactive) | > 100 µM (inactive) | > 100 µM (inactive) | > 100 µM (inactive) | > 100 µM (inactive) | > 100 µM (inactive) | > 100 µM (inactive) | > 100 µM (inactive) | > 100 µM (inactive) | > 100 µM (inactive) | > 100 µM (inactive) | > 100 µM (inactive) | > 100 µM (inactive) | > 100 µM (inactive) | > 100 µM (inactive) | > 100 µM (inactive) |
| N#CC1(C#N)C2(c3ccccc3)OC(c3ccccc3)(c3cc4ccccc4cc32)C1(C#N)C#N | 10.6 µM (inactive) | 16.9 µM (inactive) | > 10 µM (inactive) | 17.1 µM (inactive) | 18 µM (inactive) | 15.8 µM (inactive) | 2.37 µM (inactive) | 1.52 µM (inactive) | 11.8 µM (inactive) | 1.08 µM (active) | 19.5 µM (inactive) | 16.6 µM (inactive) | 14.7 µM (inactive) | 19.4 µM (inactive) | 1.71 µM (inactive) | 25.8 µM (inactive) | 17 µM (inactive) | 11.4 µM (inactive) | 7.85 µM (inactive) | 14.5 µM (inactive) |
| Cc1cccc(/N=N/c2c(C)nn(C(=O)CC(=O)Nc3ccccc3)c2C)c1 | > 100 µM (inactive) | > 100 µM (inactive) | > 100 µM (inactive) | > 100 µM (inactive) | > 100 µM (inactive) | > 100 µM (inactive) | > 100 µM (inactive) | > 100 µM (inactive) | > 100 µM (inactive) | > 100 µM (inactive) | > 100 µM (inactive) | > 100 µM (inactive) | > 100 µM (inactive) | > 100 µM (inactive) | > 100 µM (inactive) | > 100 µM (inactive) | > 100 µM (inactive) | > 100 µM (inactive) | > 100 µM (inactive) | > 100 µM (inactive) |
| CCN1CCC(O)(c2ccc(Oc3ccc(Cl)cc3)cc2)C(C(=O)c2ccc(Oc3ccc(Cl)cc3)cc2)C1 (stereo not given) | 14 µM (inactive) | 14 µM (inactive) | 14.5 µM (inactive) | 9.57 µM (inactive) | 3.76 µM (inactive) | 12.4 µM (inactive) | 1.8 µM (inactive) | 7.16 µM (inactive) | 14 µM (inactive) | 3.44 µM (inactive) | 8.61 µM (inactive) | 16.8 µM (inactive) | 6.97 µM (inactive) | 21.9 µM (inactive) | 8.45 µM (inactive) | 20.7 µM (inactive) | 17.8 µM (inactive) | 14.3 µM (inactive) | 2.56 µM (inactive) | 16.5 µM (inactive) |
| O=[N+]([O-])C(=C1NCCN1)/C(Cl)=C(\Cl)Br | 38.3 µM (inactive) | 34.5 µM (inactive) | 36.1 µM (inactive) | > 59.4 µM (inactive) | 51.6 µM (inactive) | > 100 µM (inactive) | 10.6 µM (inactive) | 34.4 µM (inactive) | 38.2 µM (inactive) | 7.1 µM (inactive) | > 44.9 µM (inactive) | > 43.4 µM (inactive) | > 100 µM (inactive) | 45.6 µM (inactive) | 22.3 µM (inactive) | > 100 µM (inactive) | 35.2 µM (inactive) | 46.5 µM (inactive) | > 100 µM (inactive) | > 100 µM (inactive) |
| N#CC(C#N)=Cc1c(O)ccc2ccccc12 | 13.8 µM (inactive) | 12.7 µM (inactive) | 16.7 µM (inactive) | 17.5 µM (inactive) | 14.7 µM (inactive) | 15 µM (inactive) | 2.99 µM (inactive) | 0.422 µM (active) | 10.4 µM (inactive) | 1.57 µM (inactive) | 16 µM (inactive) | 12 µM (inactive) | 17.1 µM (inactive) | 13.7 µM (inactive) | 2.18 µM (inactive) | 17.3 µM (inactive) | 11.9 µM (inactive) | 18.3 µM (inactive) | 17.8 µM (inactive) | 14.2 µM (inactive) |
| COc1ccc2c(C(=O)c3c(C)n(CCN4CCOCC4)c4ccccc34)cccc2c1 | 22.3 µM (inactive) | 17.9 µM (inactive) | 20.2 µM (inactive) | 12.7 µM (inactive) | 29 µM (inactive) | 16.8 µM (inactive) | 4.93 µM (inactive) | 19.8 µM (inactive) | 37.5 µM (inactive) | 2.77 µM (inactive) | 81.8 µM (inactive) | 31.6 µM (inactive) | 24.5 µM (inactive) | 21.3 µM (inactive) | 19.4 µM (inactive) | 10.8 µM (inactive) | 16.1 µM (inactive) | 21.2 µM (inactive) | 22.9 µM (inactive) | 38 µM (inactive) |
| CC1=CC(=O)/C(=C/n2c(=S)[nH]c3ccccc32)C(=O)O1 | > 100 µM (inactive) | > 100 µM (inactive) | > 100 µM (inactive) | > 100 µM (inactive) | > 100 µM (inactive) | > 100 µM (inactive) | < 0.01 µM (active) | > 100 µM (inactive) | > 100 µM (inactive) | 58.9 µM (inactive) | > 100 µM (inactive) | 76.4 µM (inactive) | > 100 µM (inactive) | > 100 µM (inactive) | > 100 µM (inactive) | 72.8 µM (inactive) | > 100 µM (inactive) | > 100 µM (inactive) | > 100 µM (inactive) | > 100 µM (inactive) |
| COc1ccc(NC(C)=O)c(C(O)CCNC(C)=O)c1 (stereo not given) | > 100 µM (inactive) | > 100 µM (inactive) | > 100 µM (inactive) | > 100 µM (inactive) | > 100 µM (inactive) | > 100 µM (inactive) | > 100 µM (inactive) | > 100 µM (inactive) | > 100 µM (inactive) | > 100 µM (inactive) | 31.5 µM (inactive) | > 100 µM (inactive) | > 100 µM (inactive) | > 100 µM (inactive) | > 100 µM (inactive) | > 100 µM (inactive) | > 100 µM (inactive) | > 100 µM (inactive) | > 100 µM (inactive) | > 100 µM (inactive) |
| COc1cc(Cn2c(=S)ss/c2=N\C(=S)N(C)C)cc(OC)c1OC | 4.73 µM (inactive) | 1.1 µM (active) | > 20.7 µM (inactive) | 3.35 µM (inactive) | 4.16 µM (inactive) | 3.44 µM (inactive) | 2.05 µM (inactive) | 17.9 µM (inactive) | 7.06 µM (inactive) | 4.32 µM (inactive) | 22.6 µM (inactive) | > 81.5 µM (inactive) | 13.2 µM (inactive) | 4.46 µM (inactive) | 8.91 µM (inactive) | 2.7 µM (inactive) | 8.93 µM (inactive) | 48.4 µM (inactive) | 2.64 µM (inactive) | > 28.5 µM (inactive) |
| COc1cccc2c1C(=O)c1c(O)c3c(c(O)c1C2=O)CC(O)(C(O)CO)CC3OC1CC2C(OC3COCC(C#N)N32)C(C)O1 (stereo not given) | < 0.01 µM (active) | < 0.01 µM (active) | < 0.01 µM (active) | < 0.01 µM (active) | < 0.01 µM (active) | < 0.01 µM (active) | < 0.01 µM (active) | < 0.01 µM (active) | < 0.01 µM (active) | < 0.01 µM (active) | < 0.01 µM (active) | < 0.01 µM (active) | < 0.01 µM (active) | < 0.01 µM (active) | < 0.01 µM (active) | < 0.01 µM (active) | < 0.01 µM (active) | < 0.01 µM (active) | < 0.01 µM (active) | < 0.01 µM (active) |
